In patent US9545105B2, “1-(heterocyclic carbonyl) piperidines” (BAYER INTELLECTUAL PROPERTY GMBH, priority 2010, dated 2017):

Tested on: not listed separately
Assay: log P by HPLC on reversed-phase column (C 18), EEC Directive 79/831 Annex V.A8
Format: physicochemical
Settings: HPLC on reversed-phase column (C 18); 40° C.; 0.1% aqueous formic acid and acetonitrile; linear gradient 10% to 90% acetonitrile
Experimental: In table 1, the log P values were determined in accordance with EEC Directive 79/831 Annex V.A8 by HPLC (High Performance Liquid Chromatography) on a reversed-phase column (C 18), using the method described below: Temperature: 40° C.; Mobile phases: 0.1% aqueous formic acid and acetonitrile; linear gradient from 10% acetonitrile to 90% acetonitrile. Calibration was carried out using unbranched alkan-2-ones (comprising 3 to 16 carbon atoms) with known log P values (determination of the log P values by the retention times using linear interpolation between two successive alkanones). lambda-max-values were determined using UV-spectra from 200 nm to 400 nm and the peak values of the chromatographic signals.
Molecule `CCc1noc(C)c1C(=O)N1CCCCC1c1ccccc1C` (stereo not drawn) [Example 2] has a logP of 3.19.
Molecule `Cc1cc(C(=O)N2CCCCC2c2ccccc2C)c(C)o1` (stereo not drawn) [Example 3] has a logP of 3.73.
Molecule `Cc1cc(C)cc(C2CCCCN2C(=O)c2cc(C)oc2C)c1` (stereo not drawn) [Example 12] has a logP of 4.34.
Work on `Cc1cc(C)cc(C2CCCCN2C(=O)c2nn(C)cc2I)c1` (stereo not drawn) [Example 13] yielded a logP of 3.55.
`Cc1cc(C)cc(C2CCCCN2C(=O)c2cn(C)nc2[N+](=O)[O-])c1` (stereo not drawn) [Example 14] showed a logP of 3.09.
`Cc1cc(C)cc(C2CCCCN2C(=O)c2nnsc2C)c1` (stereo not drawn) [Example 15] showed a logP of 3.60.
Work on `Cc1cc(C)cc(C2CCCCN2C(=O)c2snnc2C(C)C)c1` (stereo not drawn) [Example 16] yielded a logP of 4.59.
`Cc1cc(C)cc(C2CCCCN2C(=O)c2snnc2C)c1` (stereo not drawn) [Example 17] showed a logP of 3.71.
Work on `Cc1cc(C)cc(C2CCCCN2C(=O)c2nn(C)cc2Br)c1` (stereo not drawn) [Example 18] yielded a logP of 3.55.
Molecule `Cc1cc(C)cc(C2CCCCN2C(=O)c2nn(C)cc2Cl)c1` (stereo not drawn) [Example 19] has a logP of 3.44.
`CCn1nc(C)c(C(=O)N2CCCCC2c2cc(C)cc(C)c2)c1F` (stereo not drawn) [Example 20] showed a logP of 3.67.
`Cc1cc(C)cc(C2CCCCN2C(=O)c2scnc2Cl)c1` (stereo not drawn) [Example 21] gave a logP of 3.73.
Work on `Cc1cc(C)cc(C2CCCCN2C(=O)c2c(C(F)(F)F)cn(C)c2Cl)c1` (stereo not drawn) [Example 22] yielded a logP of 4.59.
`Cc1cc(C)cc(C2CCCCN2C(=O)c2sc(Cl)nc2Cl)c1` (stereo not drawn) [Example 23] gave a logP of 4.86.
`Cc1cc(C)cc(C2CCCCN2C(=O)c2cn(C)nc2C(Cl)Cl)c1` (stereo not drawn) [Example 24] gave a logP of 3.85.
For `Cc1cc(C)cc(C2CCCCN2C(=O)c2sc(Cl)nc2C)c1` (stereo not drawn) [Example 25], the logP was 4.49.
With `Cc1cc(C)cc(C2CCCCN2C(=O)c2sc(Br)nc2C)c1` (stereo not drawn) [Example 26] the logP was 4.51.
With `Cc1cc(C)cc(C2CCCCN2C(=O)c2sc(C)nc2C)c1` (stereo not drawn) [Example 27] the logP was 3.44.
For `Cc1cc(C)cc(C2CCCCN2C(=O)c2sc(C)nc2Cl)c1` (stereo not drawn) [Example 28], the logP was 4.06.
With `Cc1cc(C)cc(C2CCCCN2C(=O)c2scnc2C)c1` (stereo not drawn) [Example 29] the logP was 3.25.
For `CCn1ncc(Cl)c1C(=O)N1CCCCC1c1cc(C)cc(C)c1` (stereo not drawn) [Example 32], the logP was 4.34.
Work on `Cc1cc(C)cc(C2CCCCN2C(=O)c2c(C)oc(C)c2Br)c1` (stereo not drawn) [Example 33] yielded a logP of 4.93.
With `Cc1cc(C)cc(C2CCCCN2C(=O)c2ccsc2I)c1` (stereo not drawn) [Example 35] the logP was 4.21.
Molecule `CCc1noc(C)c1C(=O)N1CCCCC1c1ccccc1Cl` (stereo not drawn) [Example 38] has a logP of 3.29.
Work on `Cc1cc(C(=O)N2CCCCC2c2ccccc2Cl)c(C)o1` (stereo not drawn) [Example 39] yielded a logP of 3.89.
Work on `CCc1noc(C)c1C(=O)N1CCCCC1c1cccc(Cl)c1` (stereo not drawn) [Example 45] yielded a logP of 3.48.
In the case of `Cc1cc(C(=O)N2CCCCC2c2cccc(Cl)c2)c(C)o1` (stereo not drawn) [Example 46], the logP is reported as 4.04.
With `Cn1nc(C(F)F)c(C(=S)N2CCCCC2c2cccc(Cl)c2)c1Cl` (stereo not drawn) [Example 50] the logP was 4.31.
In the case of `CCc1noc(C)c1C(=O)N1CCCCC1c1ccc(Cl)cc1` (stereo not drawn) [Example 52], the logP is reported as 3.51.
With `CCc1noc(C)c1C(=O)N1CCCCC1c1ccc2c(c1)OCCO2` (stereo not drawn) [Example 61] the logP was 2.82.
Work on `Cc1cc(C(=O)N2CCCCC2c2ccc3c(c2)OCCO3)c(C)o1` (stereo not drawn) [Example 62] yielded a logP of 3.25.
With `CCc1nn(C)c(F)c1C(=O)N1CCCCC1c1ccc2c(c1)OCCO2` (stereo not drawn) [Example 63] the logP was 2.66.
In the case of `Cc1nn(C)c(F)c1C(=O)N1CCCCC1c1ccc2c(c1)OCCO2` (stereo not drawn) [Example 64], the logP is reported as 2.39.
Molecule `Cn1nc(C(F)F)c(C(=O)N2CCCCC2c2ccc3c(c2)OCCO3)c1Cl` (stereo not drawn) [Example 66] has a logP of 2.99.
Molecule `CCc1noc(C)c1C(=O)N1CCCCC1c1cc(OC)cc(OC)c1` (stereo not drawn) [Example 69] has a logP of 3.02.
Molecule `COc1cc(OC)cc(C2CCCCN2C(=O)c2cc(C)oc2C)c1` (stereo not drawn) [Example 70] has a logP of 3.48.
In the case of `CCc1noc(C)c1C(=O)N1CCCCC1c1cccc(Cl)c1Cl` (stereo not drawn) [Example 74], the logP is reported as 3.73.
`Cc1nn(C)c(Cl)c1C(=O)N1CCCCC1c1ccc(Cl)cc1Cl` (stereo not drawn) [Example 75] gave a logP of 3.60.
For `CCc1noc(C)c1C(=O)N1CCCCC1c1ccc(Cl)cc1Cl` (stereo not drawn) [Example 77], the logP was 3.89.
Molecule `CCc1noc(C)c1C(=O)N1CCCCC1c1cc(Cl)ccc1Cl` (stereo not drawn) [Example 85] has a logP of 3.78.
Molecule `CCc1noc(C)c1C(=O)N1CCCCC1c1ccccc1Br` (stereo not drawn) [Example 89] has a logP of 3.35.
With `CCc1noc(C)c1C(=O)N1CCCCC1c1ccc(Br)cc1` (stereo not drawn) [Example 101] the logP was 3.64.
In the case of `COc1cc(C2CCCCN2C(=O)c2c(C)nn(C)c2F)cc(OC)c1OC` (stereo not drawn) [Example 106], the logP is reported as 2.21.
`CCc1noc(C)c1C(=O)N1CCCCC1c1cc(OC)c(OC)c(OC)c1` (stereo not drawn) [Example 107] showed a logP of 2.64.
`COc1cc(C2CCCCN2C(=O)c2cc(C)oc2C)cc(OC)c1OC` (stereo not drawn) [Example 108] gave a logP of 3.04.
Work on `CCc1nn(C)c(F)c1C(=O)N1CCCCC1c1cc(OC)c(OC)c(OC)c1` (stereo not drawn) [Example 109] yielded a logP of 2.49.
Work on `Cc1cc(C(=O)N2CCCCC2c2cccc(Oc3ccccc3)c2)c(C)o1` (stereo not drawn) [Example 111] yielded a logP of 4.65.
In the case of `CCc1noc(C)c1C(=O)N1CCCCC1c1ccc2ccccc2c1` (stereo not drawn) [Example 119], the logP is reported as 3.76.
`Cc1cc(C(=O)N2CCCCC2c2ccc(Br)s2)c(C)o1` (stereo not drawn) [Example 127] showed a logP of 4.29.
With `CCn1nc(C)c(C(=O)N2CCCCC2c2ccc(Br)s2)c1F` (stereo not drawn) [Example 128] the logP was 3.55.
Molecule `CCc1noc(C)c1C(=O)N1CCCCC1Cc1ccccc1` (stereo not drawn) [Example 130] has a logP of 3.11.
For `Cc1nc(C(F)F)c(C(=O)N2CCCCC2Cc2ccccc2)s1` (stereo not drawn) [Example 133], the logP was 3.17.
Molecule `Cc1cc(C(=O)N2CCCCC2Cc2cccc(F)c2)c(C)o1` (stereo not drawn) [Example 152] has a logP of 3.59.
Molecule `COc1ccccc1CC1CCCCN1C(=O)c1cc(C)oc1C` (stereo not drawn) [Example 158] has a logP of 3.63.
Work on `Cc1nc(C(F)F)c(C(=O)N2CCCCC2Cc2cccc(C(F)(F)F)c2)s1` (stereo not drawn) [Example 167] yielded a logP of 3.70.
Work on `Cc1cc(C(=O)N2CCCCC2Cc2cccc(C(F)(F)F)c2)c(C)o1` (stereo not drawn) [Example 168] yielded a logP of 4.06.
Molecule `Cc1nc(C(F)F)c(C(=O)N2CCCCC2Cc2cccc3ccccc23)s1` (stereo not drawn) [Example 170] has a logP of 3.76.
Molecule `Cn1nc(C(F)F)c(C(=O)N2CCCCC2Cc2cccc3ccccc23)c1F` (stereo not drawn) [Example 171] has a logP of 3.65.
`CCc1noc(C)c1C(=O)N1CCCCC1CCc1ccccc1` (stereo not drawn) [Example 174] showed a logP of 3.44.
With `Cc1cc(C(=O)N2CCCCC2CCc2ccccc2)c(C)o1` (stereo not drawn) [Example 175] the logP was 3.92.
For `Cc1nc(C(F)F)c(C(=O)N2CCCCC2CCc2ccccc2)s1` (stereo not drawn) [Example 178], the logP was 3.52.
In the case of `Cc1nc(C(F)F)c(C(=O)N2CCCCC2CCc2cccs2)s1` (stereo not drawn) [Example 192], the logP is reported as 3.35.
`Cc1cc(C(=O)N2CCCCC2CCc2cccs2)c(C)o1` (stereo not drawn) [Example 193] showed a logP of 3.79.

Same assay, conditions: reversed-phase HPLC column (C 18); HPLC, 40° C., 0.1% aqueous formic acid and acetonitrile
`Cc1ccc(C2CCCC(C)N2C(=O)c2c(C(F)F)nn(C)c2F)cc1` (stereo not drawn) [Example 197] gave a chromatographic logP of 3.55.
Molecule `Cc1ccc(C2CCCC(C)N2C(=O)c2c(C(F)F)nn(C)c2Cl)cc1` (stereo not drawn) [Example 198] has a chromatographic logP of 3.73.
Molecule `Cc1ccc(C2CCCC(C)N2C(=O)c2cn(C)nc2C(F)F)cc1` (stereo not drawn) [Example 199] has a chromatographic logP of 3.17.

Tested on: Pyrenophora teres
Assay: In vivo preventive test on Pyrenophora teres (barley)
Settings: 500 ppm of active ingredient, evaluated 7-9 days after inoculation
Experimental: Solvent: 49 parts by weight of N,N-dimethylformamide Emulsifier: 1 part by weight of alkylaryl polyglycol ether To produce a suitable preparation of active compound, 1 part by weight of active compound is mixed with the stated amounts of solvent and emulsifier, and the concentrate is diluted with water to the desired concentration. To test for preventive activity, young plants are sprayed with the preparation of active compound at the stated rate of application. One day after this treatment, the plants are inoculated with an aqueous spore suspension of Pyrenophora teres. The plants remain for 48 hours in an incubation cabinet at 22° C. and a relative atmospheric humidity of 100%. Then the plants are placed in a greenhouse at a temperature of approximately 20° C. and a relative atmospheric humidity of approximately 80%. The test is evaluated 7-9 days after the inoculation. 0% means an efficacy which corresponds to that of the untreated control while an efficacy of 100% means that no disease is observed.
Work on `Cc1cc(C(=O)N2CCCCC2c2ccccc2C)c(C)o1` (stereo not drawn) [Example 3] yielded an Efficacy of 80%.
Work on `Cc1cc(C)cc(C2CCCCN2C(=O)c2cc(C)oc2C)c1` (stereo not drawn) [Example 12] yielded an Efficacy of 90%.
Work on `Cc1cc(C(=O)N2CCCCC2c2cccc(Cl)c2)c(C)o1` (stereo not drawn) [Example 46] yielded an Efficacy of 90%.
Molecule `Cn1nc(C(F)F)c(C(=S)N2CCCCC2c2cccc(Cl)c2)c1Cl` (stereo not drawn) [Example 50] has an Efficacy of 100%.
For `Cc1nn(C)c(F)c1C(=O)N1CCCCC1c1ccc2c(c1)OCCO2` (stereo not drawn) [Example 64], the Efficacy was 95%.
In the case of `COc1cc(OC)cc(C2CCCCN2C(=O)c2cc(C)oc2C)c1` (stereo not drawn) [Example 70], the Efficacy is reported as 80%.
